The source of these data is patent US6399579B1, “Compositions comprising icariside I and anhydroicaritin and methods for making the same” (Hauser, Inc., priority 2000, dated 2002).

Like-named read-outs stand apart in the source and are kept apart here.

As usually defined, the IC50 is the concentration needed to halve the response being measured.

Data set [1] concerns the target phosphodiesterase type V (PDE-5) (Homo sapiens, UniProt O76074). In words: PDE-5 inhibition assay. The format is biochemical.
Data set [2] is described as follows: Partition of icariside I between ethyl acetate and water. The class given is physicochemical. The conditions noted are these: hydrolyzate adjusted to pH 7.0. On the procedure: The ethanolic hydrolyzate (25 mL) prepared in Example 1 was mixed with 62.5 mL of de-ionized water and the pH was adjusted to 7.0 using 50% (w/w) sodium hydroxide solution. The resulting mixture was extracted with three 25 mL portions of ethyl acetate and the combined ethyl acetate extracts were back extracted with 150 mL of water.

As to `COc1ccc(-c2oc3c(CCC(C)(C)O)c(O[C@@H]4O[C@H](CO)[C@@H](O)[C@H](O)[C@H]4O)cc(O)c3c(=O)c2O)cc1` [Entry 12, icariside I hydrate], in data set [1], the “PDE-5 IC50” value came to 21.50 μg/mL and the “PDE-5 inhibition (in words)” value was “essentially inactive”.

For `COc1ccc(-c2oc3c(CC=C(C)C)c(O[C@@H]4O[C@H](CO)[C@@H](O)[C@H](O)[C@H]4O)cc(O)c3c(=O)c2O)cc1` [Entry 10, icariside I], in data set [1], the “PDE-5 inhibition (in words)” value is given as “strong PDE-5 inhibitor”. For the same compound, the IC50 in data set [1] (read-out: PDE-5 IC50 (converted)) was 622 nM. For the same compound, the “partition coefficient between ethyl acetate and water” value in data set [2] amounted to 16.

In the case of `COc1ccc(-c2oc3c(CC=C(C)C)c(O)cc(O)c3c(=O)c2O)cc1` [Entry 11, anhydroicaritin], in data set [1], the IC50 was 4070 nM and the “PDE-5 inhibition (in words)” value is “significant inhibition of PDE-5”. In addition, the “PDE-5 inhibition (in words)” value in data set [1] (listed as anhydroicaritin) was “strong PDE-5 inhibitor”.
